Test results published in ChEMBL document CHEMBL1201862, “PubChem BioAssay data set” (2004).
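Method: 48-hour compound exposure of cells in 96-well plates, five concentrations, linear interpolation of endpoints. GI50 is the concentration that inhibits growth by half.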 Activity calls are given as the source filed them. Rule as the data show it: active = GI50 up to about 1.1 µM and inactive = higher.

Legend:
Test in all cases: inhibition of tumour cell growth, NCI panel, 48 h
[1] = system: HCC 2998
[2] = system: A549
[3] = system: SNB-75
[4] = system: RPMI-8226
[5] = system: A498
[6] = system: MCF7
[7] = system: CAKI-1
[8] = system: SK-MEL-2
[9] = system: DU-145
[10] = system: T47D
[11] = system: ACHN
[12] = system: LOX IMVI
[13] = system: NCI/ADR-RES
[14] = system: RXF 393
[15] = system: HCT-15
[16] = system: HOP-92
[17] = system: SF-295
[18] = system: NCI-H226
[19] = system: SR
[20] = system: Malme-3M

| SMILES | GI50 [1] | GI50 [2] | GI50 [3] | GI50 [4] | GI50 [5] | GI50 [6] | GI50 [7] | GI50 [8] | GI50 [9] | GI50 [10] | GI50 [11] | GI50 [12] | GI50 [13] | GI50 [14] | GI50 [15] | GI50 [16] | GI50 [17] | GI50 [18] | GI50 [19] | GI50 [20] |
| --- | --- | --- | --- | --- | --- | --- | --- | --- | --- | --- | --- | --- | --- | --- | --- | --- | --- | --- | --- | --- |
| CC1CN=C(Nc2ccc(F)c(Cl)c2)S1 (stereo not given) | > 100 µM (inactive) | 88.9 µM (inactive) | > 100 µM (inactive) | 39.3 µM (inactive) | 62.8 µM (inactive) | > 100 µM (inactive) | 53.6 µM (inactive) | > 100 µM (inactive) | > 100 µM (inactive) | 88.9 µM (inactive) | > 100 µM (inactive) | 86.7 µM (inactive) | 42.5 µM (inactive) | 37.6 µM (inactive) | 83.4 µM | 28.9 µM (inactive) | > 100 µM (inactive) | > 100 µM (inactive) | 31.5 µM (inactive) | > 100 µM (inactive) |
| CSC(=S)N/N=C(\C)c1ccc(S(=O)(=O)N(C)c2ccccc2)cc1 | > 100 µM (inactive) | 29.1 µM (inactive) | 39.3 µM (inactive) | 27.8 µM (inactive) | 89.7 µM (inactive) | 18.2 µM (inactive) | 50.5 µM (inactive) | 35.3 µM (inactive) | > 100 µM (inactive) | 66.5 µM (inactive) | 22.6 µM (inactive) | 18.3 µM (inactive) | 28.8 µM (inactive) | 77.8 µM (inactive) | 34.2 µM | 23.8 µM (inactive) | 12.8 µM (inactive) | 20.1 µM (inactive) | 5.19 µM (inactive) | 2.07 µM (inactive) |
| O=c1c2c(F)c(F)c(F)c(F)c2sc2nccn12 | 17.5 µM (inactive) | 19.5 µM (inactive) | 22.5 µM (inactive) | 16.7 µM (inactive) | 19.2 µM (inactive) | 17.4 µM (inactive) | 19 µM (inactive) | 19.1 µM (inactive) | 19.9 µM (inactive) | 0.745 µM (active) | 16.4 µM (inactive) | 12.3 µM (inactive) | 26.8 µM (inactive) | 17.7 µM (inactive) | 12.4 µM | 19.9 µM (inactive) | 17.9 µM (inactive) | 25.2 µM (inactive) | 3.27 µM (inactive) | 17.3 µM (inactive) |
| NC1CNC(=O)c2c(Cl)sc(Cl)c21 (stereo not given) | > 100 µM (inactive) | > 100 µM (inactive) | > 100 µM (inactive) | > 100 µM (inactive) | > 100 µM (inactive) | > 100 µM (inactive) | > 100 µM (inactive) | > 100 µM (inactive) | > 100 µM (inactive) | > 100 µM (inactive) | > 100 µM (inactive) | > 100 µM (inactive) | > 100 µM (inactive) | > 100 µM (inactive) | > 100 µM | > 100 µM (inactive) | > 100 µM (inactive) | > 100 µM (inactive) | 41.4 µM (inactive) | > 100 µM (inactive) |
| C#C[C@]1(O)CC[C@H]2[C@@H]3CCC4=C/C(=N\OCCN5CCCCC5)CC[C@]4(C)[C@H]3CC[C@@]21C | 12.8 µM (inactive) | 7.08 µM (inactive) | 4.3 µM (inactive) | 2.43 µM (inactive) | 6.15 µM (inactive) | 3.34 µM (inactive) | 6.21 µM (inactive) | 2.77 µM (inactive) | 8.51 µM (inactive) | 2.69 µM (inactive) | 8.3 µM (inactive) | 3.58 µM (inactive) | 3.52 µM (inactive) | 2.86 µM (inactive) | 7.31 µM | 15 µM (inactive) | 3.56 µM (inactive) | 17.2 µM (inactive) | 1.48 µM (inactive) | 8.79 µM (inactive) |
| O=[N+]([O-])c1ccc(/C(=C\c2ccccc2)Cn2ccnc2)cc1 | 68.7 µM (inactive) | 39.3 µM (inactive) | 27.4 µM (inactive) | 28.9 µM (inactive) | 20.9 µM (inactive) | 19.9 µM (inactive) | 3.77 µM (inactive) | 22.9 µM (inactive) | 60 µM (inactive) | 34.8 µM (inactive) | 29.8 µM (inactive) | 17.3 µM (inactive) | 21.1 µM (inactive) | 31.6 µM (inactive) | 30.2 µM | 18.9 µM (inactive) | 32.7 µM (inactive) | 32.4 µM (inactive) | 38.1 µM (inactive) | 85.5 µM (inactive) |
| CC(=O)O[C@H]1[C@@H](N2CCOCC2)C[C@H]2[C@@H]3CC=C4C[C@@H](N5CCCC5)CC[C@]4(C)[C@H]3CC[C@@]21C | 48.8 µM (inactive) | > 100 µM (inactive) | > 100 µM (inactive) | > 100 µM (inactive) | > 100 µM (inactive) | > 100 µM (inactive) | > 100 µM (inactive) | > 100 µM (inactive) | > 100 µM (inactive) | > 100 µM (inactive) | > 100 µM (inactive) | > 100 µM (inactive) | > 100 µM (inactive) | > 100 µM (inactive) | > 100 µM | 85.9 µM (inactive) | > 100 µM (inactive) | > 100 µM (inactive) | 49.7 µM (inactive) | > 100 µM (inactive) |
| CC[S+]1C2=C(CC(C)(C)CC2=O)[N-]c2ccccc21 (stereo not given) | > 100 µM (inactive) | > 100 µM (inactive) | > 100 µM (inactive) | > 100 µM (inactive) | > 100 µM (inactive) | 24.4 µM (inactive) | > 100 µM (inactive) | > 100 µM (inactive) | > 100 µM (inactive) | > 100 µM (inactive) | > 100 µM (inactive) | > 100 µM (inactive) | > 100 µM (inactive) | > 100 µM (inactive) | > 100 µM | > 100 µM (inactive) | 31.6 µM (inactive) | > 100 µM (inactive) | > 100 µM (inactive) | > 100 µM (inactive) |
| Fc1c(F)c(F)c2c(c1F)CSc1nc3ccccc3n1-2 | > 100 µM (inactive) | > 100 µM (inactive) | > 100 µM (inactive) | > 100 µM (inactive) | > 100 µM (inactive) | > 100 µM (inactive) | > 100 µM (inactive) | > 100 µM (inactive) | > 100 µM (inactive) | > 100 µM (inactive) | > 100 µM (inactive) | > 100 µM (inactive) | > 100 µM (inactive) | > 100 µM (inactive) | > 100 µM | > 100 µM (inactive) | > 100 µM (inactive) | > 100 µM (inactive) | > 100 µM (inactive) | > 100 µM (inactive) |
| NS(=O)(=O)c1cc(C(=O)O)c(Cl)c([N+](=O)[O-])c1Cl | > 100 µM (inactive) | > 100 µM (inactive) | > 100 µM (inactive) | > 100 µM (inactive) | > 100 µM (inactive) | > 100 µM (inactive) | > 100 µM (inactive) | > 100 µM (inactive) | > 100 µM (inactive) | > 100 µM (inactive) | > 100 µM (inactive) | > 100 µM (inactive) | > 100 µM (inactive) | > 100 µM (inactive) | > 100 µM | > 100 µM (inactive) | > 100 µM (inactive) | > 100 µM (inactive) | > 100 µM (inactive) | > 100 µM (inactive) |
